Reference: the NIST ThermoML archive (doi:10.1007/s10765-019-2568-3)
± gives the expanded uncertainty stated by the source.

Legend:
[1] = molar heat capacity at constant pressure; settings: 100 kPa, DSC
[2] = for thermal conductivity / thermal diffusivity: 100 kPa; for thermal diffusivity: Laser flash apparatus

[Fe] [iron]
Settings | molar heat capacity at constant pressure, [1] [J/K/mol] | thermal conductivity, [2] [W/m/K] | thermal diffusivity, [2] [m2/s]
293.15 K, Crystal 4 | 24.96 ± 1.6 | 82.5 ± 7 | 2.22e-05 ± 1.2e-06
373.15 K, Crystal 4 | 27.53 ± 1.5 | 73.4 ± 5.4 | 1.92e-05 ± 1.1e-06
473.15 K, Crystal 4 | 29.54 ± 1.7 | 65.5 ± 4.8 | 1.58e-05 ± 8.2e-07
573.15 K, Crystal 4 | 31.38 ± 2 | 58.2 ± 4.5 | 1.31e-05 ± 6.7e-07
673.15 K, Crystal 4 | 34.23 ± 2.1 | 52 ± 4.1 | 1.08e-05 ± 5.5e-07
773.15 K, Crystal 4 | 37.36 ± 2.2 | 46.7 ± 3.6 | 8.91e-06 ± 4.6e-07
873.15 K, Crystal 4 | 41.66 ± 2.5 | 41.1 ± 3 | 7.06e-06 ± 3.5e-07
973.15 K, Crystal 4 | 48.64 ± 3.4 | 36.2 ± 3.2 | 5.18e-06 ± 2.8e-07
1073.2 K, Crystal 3 | 52.72 ± 4 | 31.5 ± 2.8 | 4.49e-06 ± 2.4e-07
1173.2 K, Crystal 3 | 42.22 ± 3.3 | 30 ± 3 | 5.27e-06 ± 2.6e-07
1273.2 K, Crystal 2 | 33.62 ± 2.4 | 28.4 ± 2.8 | 6.33e-06 ± 3.5e-07

Settings | mass density [kg/m3]
[2], 293 K, 101.33 kPa, Crystal 4 | 7849 ± 6
